Literature values as cited in paper PMC8230491 (Pharmaceuticals, 2021).

Settings: KET COOH; protonated LYS γ-NH2; no reference given

NCCCC[C@H](N)C(=O)O [LYS, lysine]
pKa: 10.29
